According to ChEMBL document CHEMBL1201862, “PubChem BioAssay data set” (2004):
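Test compounds were applied to cells in 96-well plates for 48 hours at 5 doses. At the GI50, growth is halved.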 Active and inactive are the calls of the source. No stated cut-off is given here; in the data, active = GI50 up to about 1.1 µM and inactive = higher.

Tests used:
Experiment in all cases: DTP human tumour cell line panel, 48 h
NCI-H23 = tested on: NCI-H23
K562 = tested on: K562
SW-620 = tested on: SW-620
ACHN = tested on: ACHN
UACC-62 = tested on: UACC-62
SR = tested on: SR
HT-29 = tested on: HT-29
TK-10 = tested on: TK-10
EKVX = tested on: EKVX
CCRF-CEM = tested on: CCRF-CEM
PC-3 = tested on: PC-3
NCI/ADR-RES = tested on: NCI/ADR-RES
NCI-H522 = tested on: NCI-H522
SF-539 = tested on: SF-539
SF-268 = tested on: SF-268
M14 = tested on: M14
HOP-62 = tested on: HOP-62
OVCAR-4 = tested on: OVCAR-4
SK-OV-3 = tested on: SK-OV-3
DU-145 = tested on: DU-145
RPMI-8226 = tested on: RPMI-8226
HCC 2998 = tested on: HCC 2998
RXF 393 = tested on: RXF 393
MDA-MB-231 = tested on: MDA-MB-231
SK-MEL-28 = tested on: SK-MEL-28
MOLT-4 = tested on: MOLT-4
NCI-H226 = tested on: NCI-H226
NCI-H460 = tested on: NCI-H460
U-251 = tested on: U-251
A549 = tested on: A549
UO-31 = tested on: UO-31
A498 = tested on: A498
MDA-N = tested on: MDA-N
MCF7 = tested on: MCF7
CAKI-1 = tested on: CAKI-1
SNB-19 = tested on: SNB-19
KM12 = tested on: KM12
SN12C = tested on: SN12C
786-0 = tested on: 786-0
Malme-3M = tested on: Malme-3M
OVCAR-3 = tested on: OVCAR-3
T47D = tested on: T47D
SK-MEL-5 = tested on: SK-MEL-5
COLO 205 = tested on: COLO 205
SNB-75 = tested on: SNB-75
LOX IMVI = tested on: LOX IMVI
MDA-MB-435 = tested on: MDA-MB-435
SF-295 = tested on: SF-295
OVCAR-5 = tested on: OVCAR-5
HL-60 = tested on: HL-60
HCT-15 = tested on: HCT-15
BT-549 = tested on: BT-549
SK-MEL-2 = tested on: SK-MEL-2
OVCAR-8 = tested on: OVCAR-8
HCT-116 = tested on: HCT-116
Hs-578T = tested on: Hs-578T
UACC-257 = tested on: UACC-257
HOP-92 = tested on: HOP-92
IGROV-1 = tested on: IGROV-1

C=CCC1(OCc2ccccc2)C(=O)C(=O)OC1C1COC(C)(C)O1 (configuration not stated)
GI50 (NCI-H23): > 100 µM (inactive) | GI50 (K562): > 100 µM (inactive) | GI50 (SW-620): > 100 µM (inactive) | GI50 (ACHN): > 100 µM (inactive) | GI50 (UACC-62): > 100 µM (inactive) | GI50 (SR): > 100 µM (inactive) | GI50 (HT-29): > 100 µM (inactive) | GI50 (TK-10): > 100 µM (inactive) | GI50 (EKVX): > 100 µM (inactive) | GI50 (CCRF-CEM): > 100 µM (inactive) | GI50 (PC-3): > 100 µM (inactive) | GI50 (NCI/ADR-RES): > 100 µM (inactive) | GI50 (NCI-H522): > 100 µM (inactive) | GI50 (SF-539): > 100 µM (inactive) | GI50 (SF-268): > 100 µM (inactive) | GI50 (M14): > 100 µM (inactive) | GI50 (HOP-62): > 100 µM (inactive) | GI50 (OVCAR-4): > 100 µM (inactive) | GI50 (SK-OV-3): > 100 µM (inactive) | GI50 (DU-145): > 100 µM (inactive) | GI50 (RPMI-8226): > 100 µM (inactive) | GI50 (HCC 2998): > 100 µM (inactive) | GI50 (RXF 393): > 100 µM (inactive) | GI50 (MDA-MB-231): > 100 µM (inactive) | GI50 (SK-MEL-28): > 100 µM (inactive) | GI50 (MOLT-4): > 100 µM (inactive) | GI50 (NCI-H226): > 100 µM (inactive) | GI50 (NCI-H460): > 100 µM (inactive) | GI50 (U-251): > 100 µM (inactive) | GI50 (A549): > 100 µM (inactive) | GI50 (UO-31): > 100 µM (inactive) | GI50 (A498): > 100 µM (inactive) | GI50 (MDA-N): > 100 µM (inactive) | GI50 (MCF7): > 100 µM (inactive) | GI50 (CAKI-1): > 100 µM (inactive) | GI50 (SNB-19): > 100 µM (inactive) | GI50 (KM12): > 100 µM (inactive) | GI50 (SN12C): > 100 µM (inactive) | GI50 (786-0): > 100 µM (inactive) | GI50 (Malme-3M): > 100 µM (inactive) | GI50 (OVCAR-3): > 100 µM (inactive) | GI50 (T47D): > 100 µM (inactive) | GI50 (SK-MEL-5): > 100 µM (inactive) | GI50 (COLO 205): > 100 µM (inactive) | GI50 (SNB-75): > 100 µM (inactive) | GI50 (LOX IMVI): > 100 µM (inactive) | GI50 (MDA-MB-435): > 100 µM (inactive) | GI50 (SF-295): > 100 µM (inactive) | GI50 (OVCAR-5): > 100 µM (inactive) | GI50 (HL-60): > 100 µM (inactive) | GI50 (HCT-15): > 100 µM | GI50 (BT-549): > 100 µM (inactive) | GI50 (SK-MEL-2): > 100 µM (inactive) | GI50 (OVCAR-8): > 100 µM (inactive) | GI50 (HCT-116): > 100 µM (inactive) | GI50 (Hs-578T): > 100 µM (inactive) | GI50 (UACC-257): > 100 µM (inactive)

N=C(N)N/N=C/c1nc2n(c1[N+](=O)[O-])CCS2
GI50 (NCI-H23): 14.5 µM (inactive) | GI50 (SW-620): 28.4 µM (inactive) | GI50 (ACHN): > 100 µM (inactive) | GI50 (UACC-62): 42.8 µM (inactive) | GI50 (SR): 14.5 µM (inactive) | GI50 (HT-29): 30.2 µM (inactive) | GI50 (TK-10): 40.7 µM (inactive) | GI50 (EKVX): 22.9 µM (inactive) | GI50 (PC-3): 31.6 µM (inactive) | GI50 (NCI/ADR-RES): > 100 µM (inactive) | GI50 (NCI-H522): 12.9 µM (inactive) | GI50 (SF-539): 29 µM (inactive) | GI50 (SF-268): 10.6 µM (inactive) | GI50 (M14): 25.2 µM (inactive) | GI50 (HOP-62): 41.4 µM (inactive) | GI50 (OVCAR-4): 16.2 µM (inactive) | GI50 (SK-OV-3): 45.3 µM (inactive) | GI50 (DU-145): 27.3 µM (inactive) | GI50 (RPMI-8226): 52 µM (inactive) | GI50 (RXF 393): 20.8 µM (inactive) | GI50 (MDA-MB-231): 29 µM (inactive) | GI50 (SK-MEL-28): 43.7 µM (inactive) | GI50 (MOLT-4): 22.2 µM (inactive) | GI50 (NCI-H226): 35.8 µM (inactive) | GI50 (NCI-H460): 18.1 µM (inactive) | GI50 (U-251): 15.7 µM (inactive) | GI50 (A549): 26.8 µM (inactive) | GI50 (UO-31): > 100 µM (inactive) | GI50 (A498): 43.3 µM (inactive) | GI50 (MDA-N): 32.1 µM (inactive) | GI50 (MCF7): 15 µM (inactive) | GI50 (CAKI-1): > 100 µM (inactive) | GI50 (SNB-19): 27.5 µM (inactive) | GI50 (KM12): 25 µM (inactive) | GI50 (SN12C): 22 µM (inactive) | GI50 (786-0): 38.6 µM (inactive) | GI50 (HOP-92): > 100 µM (inactive) | GI50 (Malme-3M): 15.6 µM (inactive) | GI50 (OVCAR-3): 7.35 µM (inactive) | GI50 (T47D): 17.3 µM (inactive) | GI50 (SK-MEL-5): 18.5 µM (inactive) | GI50 (COLO 205): 14 µM (inactive) | GI50 (SNB-75): 23.9 µM (inactive) | GI50 (LOX IMVI): 15.7 µM (inactive) | GI50 (MDA-MB-435): 27.9 µM (inactive) | GI50 (SF-295): 26.4 µM (inactive) | GI50 (OVCAR-5): 43.8 µM (inactive) | GI50 (HL-60): 22.5 µM (inactive) | GI50 (HCT-15): 65.3 µM | GI50 (BT-549): 31.6 µM (inactive) | GI50 (SK-MEL-2): 17.5 µM (inactive) | GI50 (OVCAR-8): 15.7 µM (inactive) | GI50 (IGROV-1): 50.2 µM (inactive) | GI50 (HCT-116): 21.9 µM (inactive) | GI50 (Hs-578T): 30.3 µM (inactive) | GI50 (UACC-257): 17.1 µM (inactive)

Cc1cc(C)c2c(c1)C(=O)C1(C2)Cc2c(ccc(C)c2C)C1=O (configuration not stated)
GI50 (K562): > 100 µM (inactive) | GI50 (SW-620): > 100 µM (inactive) | GI50 (ACHN): > 100 µM (inactive) | GI50 (UACC-62): > 100 µM (inactive) | GI50 (SR): > 100 µM (inactive) | GI50 (TK-10): > 100 µM (inactive) | GI50 (EKVX): > 100 µM (inactive) | GI50 (CCRF-CEM): > 100 µM (inactive) | GI50 (PC-3): > 100 µM (inactive) | GI50 (NCI/ADR-RES): > 100 µM (inactive) | GI50 (NCI-H522): 43.8 µM (inactive) | GI50 (SF-539): 85.5 µM (inactive) | GI50 (SF-268): > 100 µM (inactive) | GI50 (M14): > 100 µM (inactive) | GI50 (OVCAR-4): > 100 µM (inactive) | GI50 (DU-145): > 100 µM (inactive) | GI50 (RPMI-8226): > 100 µM (inactive) | GI50 (HCC 2998): > 100 µM (inactive) | GI50 (RXF 393): > 100 µM (inactive) | GI50 (MDA-MB-231): > 100 µM (inactive) | GI50 (SK-MEL-28): > 100 µM (inactive) | GI50 (MOLT-4): > 100 µM (inactive) | GI50 (NCI-H226): > 100 µM (inactive) | GI50 (NCI-H460): > 100 µM (inactive) | GI50 (U-251): > 100 µM (inactive) | GI50 (A549): > 100 µM (inactive) | GI50 (UO-31): > 100 µM (inactive) | GI50 (A498): > 100 µM (inactive) | GI50 (MDA-N): > 100 µM (inactive) | GI50 (MCF7): > 100 µM (inactive) | GI50 (CAKI-1): > 100 µM (inactive) | GI50 (SNB-19): > 100 µM (inactive) | GI50 (KM12): > 100 µM (inactive) | GI50 (SN12C): > 100 µM (inactive) | GI50 (786-0): > 100 µM (inactive) | GI50 (HOP-92): > 100 µM (inactive) | GI50 (Malme-3M): 22.3 µM (inactive) | GI50 (OVCAR-3): 14.3 µM (inactive) | GI50 (T47D): > 100 µM (inactive) | GI50 (SK-MEL-5): > 100 µM (inactive) | GI50 (COLO 205): > 100 µM (inactive) | GI50 (SNB-75): > 100 µM (inactive) | GI50 (LOX IMVI): > 100 µM (inactive) | GI50 (MDA-MB-435): > 100 µM (inactive) | GI50 (SF-295): > 100 µM (inactive) | GI50 (HL-60): > 100 µM (inactive) | GI50 (HCT-15): > 100 µM | GI50 (BT-549): > 100 µM (inactive) | GI50 (SK-MEL-2): > 100 µM (inactive) | GI50 (OVCAR-8): > 100 µM (inactive) | GI50 (IGROV-1): > 100 µM (inactive) | GI50 (HCT-116): > 100 µM (inactive) | GI50 (Hs-578T): > 100 µM (inactive) | GI50 (UACC-257): > 100 µM (inactive)
